Laboratory results reported in US20060217443A1, “Method for preventing and/or treating vaginal and vulval infections” (Kimberly-Clark Worldwide, Inc., priority 2005, published 2006).
Read-outs that look alike come from different tables or passages of the source.

Tests used:
Trichomonas vaginalis = test: Viable Trichomonas vaginalis cell count under a microscope; format: cell-based; settings: for Inhibitory effect on Trichomonas vaginalis cell counts compared to control: gallic acid 0.11 percent
Experimental: A sample of Trichomonas vaginalis, the parasite found in trichomonas vaginitis, was obtained from the American Type Culture Collection (ATCC), catalog number 30001. The culture medium was LYI-S-2 medium (ATCC medium 2154).
A sterile LYI-S-2 medium was prepared according to the manufacturer's instructions, and the pH of this medium was adjusted to pH 6.0 using 1 N HCl. Gallic acid monohydrate (SIGMA-398225 from Signa Aldrich, USA) was dissolved in the LYI-S-2 medium. […] 0.9 milliliter of the gallic acid/LYI-S-2 solution or culture medium only (as control) was added into different culture tubes.
0.1 milliliter of Trichomonas vaginalis culture suspension, at a concentration of 1×10^6/milliliter, was added to each of the culture tubes, which were then incubated at 35 degrees Celsius on a 15 degree horizontal slant.
The viable Trichomonas vaginalis cells in each tube were counted under a microscope after 24 hours.
This procedure was repeated twice.
Essentially the same procedure was performed as described in Example 1, but this time differing concentrations of gallic acid were tested on samples of Trichomonas vaginalis. The gallic acid concentrations that were tested were: 0.11 percent, 0.66 percent and 1.1 percent. More samples in each group were included (n=4), and the effects of the gallic acid over a longer time period were also observed, i.e. after 24 and 48 hours.

Candida albicans [1] = test: Zone-of-inhibition test, Candida albicans; format: cell-based
Experimental: (§1) A sample of Candida albicans, the yeast found in candidiasis, was also obtained from the American Type Culture Collection (ATCC), catalog number 10231, and was cultured in YM agar (Difco 0712) and YM broth (Difco 0711). A microorganism culture of 10^5 cfu (colony forming units)/milliliter in a 1× phosphate buffered saline (PBS) solution (diluted from 10× PBS LIQUID CONCENTRATE from VWR Cat. No. EM-6507] was prepared for each of Candida albicans and Lactobacillus acidophilus. One milliliter of each solution was plated on proper agar plates, depending on which microorganism was being tested. The agar plates were incubated at 35 degrees Celsius for four hours. Three 4 millimeter diameter wells were then punched into each agar plate. A test sample of 10 mg/ml gallic acid in sterilized 2-N-morpholino ethane sulfonic (MES, pH=4.7) buffer (0.1 M 2-[morpholino]-ethanesulfonic acid, 0.9 percent NaCl, pH 4.7, prepared from BupHTM MES Buffer Saline Pack from Cat. No. 28390, Pierce Biotechnology, Inc., Rockford, Ill.) was added to one well of each plate. […] The plates were incubated overnight at 35 degrees Celsius. The presence of a zone of microorganism inhibition was measured the following day for Candida albicans and Lactobacillus acidophilus activity, respectively.

[2] = test system: Lactobacillus acidophilus; test: Zone-of-inhibition test, Lactobacillus acidophilus; format: cell-based
Experimental: as §1, with “Lactobacillus acidophilus, a desirable bacterium in” for “Candida albicans,”, “vaginal ecosystem,” for “yeast found in candidiasis,”, “4354,” for “10231,”, “ATCC medium 416.” for “YM agar (Difco 0712) and YM broth (Difco 0711).”

Candida albicans [3] = test: Inhibition test in solution by measuring optical density, Candida albicans; format: cell-based; settings: gallic acid 5 milligram/milliliter, 24 hours, FIG. 3
Experimental: A sample of Candida albicans, the yeast found in candidiasis, was also obtained from the American Type Culture Collection (ATCC), catalog number 10231, and was cultured in YM agar (Difco 0712) and YM broth (Difco 0711). […] Control and gallic acid solutions (0.9 milliliters) were filtered and added into separate culture tubes, and to these were added 0.1 milliliter of either the Candida albicans or Lactobacillus acidophilus suspension at a concentration of around 10^6 cfu/milliliter. The culture tubes were then incubated overnight at 37 degrees Celsius, whereafter the optical density was measured at 2, 4, 6 and 24 hours at 590 nanometers, by pippeting 100 microliters of the control or sample solutions into 96-well microplates, and then using a Molecular Devices of Sunnyvale, Calif. ThermoMax Microplate Reader to obtain the optical density readings at 590 nm wavelengths.

[4] = test system: Lactobacillus acidophilus; test: Inhibition test in solution by measuring optical density, Lactobacillus acidophilus; format: cell-based; settings: gallic acid 5 milligram/milliliter, 24 hours, FIG. 4
Experimental: A sample of Lactobacillus acidophilus, a desirable bacterium in the vaginal ecosystem, was also obtained from the American Type Culture Collection (ATCC), catalog number 4354, and was cultured in ATCC medium 416. […] Control and gallic acid solutions (0.9 milliliters) were filtered and added into separate culture tubes, and to these were added 0.1 milliliter of either the Candida albicans or Lactobacillus acidophilus suspension at a concentration of around 10^6 cfu/milliliter. The culture tubes were then incubated overnight at 37 degrees Celsius, whereafter the optical density was measured at 2, 4, 6 and 24 hours at 590 nanometers, by pippeting 100 microliters of the control or sample solutions into 96-well microplates, and then using a Molecular Devices of Sunnyvale, Calif. ThermoMax Microplate Reader to obtain the optical density readings at 590 nm wavelengths.

Gardnerella vaginalis = test: Inhibition test in solution by plate count, Gardnerella vaginalis; format: cell-based; settings: 7.5 mg/ml gallic acid
Experimental: A sample of Gardnerella vaginalis, the pathogenic bacterium found in bacterial vaginosis, was obtained from the American Type Culture Collection (ATCC), catalog number 14018. The culture medium was ATCC medium 70 and Casman's medium (BD 229010) with 5 percent rabbit blood.
A test compound of Gardnerella vaginalis was prepared in culture media to form a suspension. Control and gallic acid solutions (0.9 milliliters; 7.5 milligram gallic acid/milliliter) were filtered and added into separate culture tubes, and to these were added 0.1 milliliter of the Gardnerella vaginalis suspension at a concentration of around 10^6 cfu/milliliter. The culture tubes were incubated at 37 degrees Celsius for 24 hours.
The samples in the culture tubes were then diluted at 1, 10 and 100 times, and 100 microliters of each dilution was plated onto agar plates with WASP (Whitely Automatic Spiral Plate) spiral plating equipment from Don Whitely Scientific Limited, USA. The plates were incubated overnight at 35 degrees Celsius, and the colonies were counted on each plate by either ProtoCol® from Synbiosis, Frederick, Md., USA Whitely Scientific Limited, USA or by hand count.

[5] = Highest concentration obtainable in water; format: physicochemical; settings: gallic acid monohydrate, only partially water soluble
[6] = test system: Lactobacillus acidophilus; settings: previously shown; cited from earlier work
[7] = 10 milligram/ml gallic acid or 0.5 percent Benzyl Quats in well, MES buffer pH 4.7, overnight 35 degrees Celsius, n = 2
[8] = zone-of-inhibition test, gallic acid 10 mg/ml, Benzyl Quats 0.5 percent

Highest concentration of gallic acid that could be obtained in water [5]: 1.1 percent (g/100 milliliter)
Structure (SMILES): O=C(O)c1cc(O)c(O)c(O)c1 [gallic acid, 3,4,5-trihydroxybenzoic acid]
Inhibitory effect on Trichomonas vaginalis cell counts compared to control (Trichomonas vaginalis; 24 hours, n=4, FIG. 1): 50%
Inhibitory effect on Trichomonas vaginalis cell counts compared to control (Trichomonas vaginalis; 48 hours, n=4, FIG. 2): 70%
Live Trichomonas vaginalis cells (in words) (Trichomonas vaginalis; gallic acid 0.66 percent, 24 hours, n=4, Example 2): No live Trichomonas vaginalis cells were observed
Live Trichomonas vaginalis cells (in words) (Trichomonas vaginalis; gallic acid 0.66 percent, 48 hours, n=4, Example 2): No live Trichomonas vaginalis cells were observed
Live Trichomonas vaginalis cells (in words) (Trichomonas vaginalis; gallic acid 1.1 percent, 24 hours, Example 1): no live Trichomonas vaginalis cells were observed
Number of Trichomonas cells, Repeat 2 (Trichomonas vaginalis; gallic acid 1.1 percent, 24 hours, Example 1, control 1 000 000): 0
Number of Trichomonas cells, Repeat 1 (Trichomonas vaginalis; gallic acid 1.1 percent, 24 hours, Example 1, control 900 000): 0
Live Trichomonas vaginalis cells (in words) (Trichomonas vaginalis; gallic acid 1.1 percent, 24 hours, n=4, Example 2): No live Trichomonas vaginalis cells were observed
Live Trichomonas vaginalis cells (in words) (Trichomonas vaginalis; gallic acid 1.1 percent, 48 hours, n=4, Example 2): No live Trichomonas vaginalis cells were observed
Zone of inhibition, Candida albicans (Candida albicans [1]; [7]): 5 millimeter
Effect on growth of Candida albicans (in words) (Candida albicans [1]; [8]): selectively inhibited Candida albicans
Zone of inhibition, Lactobacillus acidophilus [2, 7]: 0 millimeter
Effect on growth of Lactobacillus acidophilus (in words) [2, 8]: did not affect the growth of Lactobacillus acidophilus
Growth of Candida albicans by optical density at 590 nm (in words) (Candida albicans [3]): significantly inhibit the growth of Candida albicans
Growth of Lactobacillus acidophilus by optical density at 590 nm (in words) [4]: did not show any significant inhibition
Gardnerella vaginalis plate count, Average (Gardnerella vaginalis; 24 hours treatment, n = 4, negative control 1.81E+08, p < 0.05): *3.43E+04
inhibition at 7500 µg/mL (Gardnerella vaginalis; Gardnerella vaginalis, 24 hours of treatment, read-out: Inhibition on the growth of Gardnerella vaginalis compared to control group): > 100%
Effect on growth of Lactobacillus acidophilus (in words) [6]: does not affect the growth of Lactobacillus acidophilus
